This experiment concerns A549 human lung adenocarcinoma cells. The experiment in a line: Immunofluorescent detection of effects on the microtubule matrix (anti-alpha-tubulin). The class given is cell-based. The protocol: Microsclerodermin compounds were evaluated as to their effects on the microtubule network of A549 human lung adenocarcinoma cells using anti-alpha-tubulin monoclonal antibodies. […] Tests were conducted to determine if the microsclerodermin compounds acted upon the cellular microtubule network in a similar fashion.
On day 1, 7.0×10^4 adherent A549 cells were cultured in TCM overnight at 37° C. in 5% CO2 on 22 mm2 coverslipsin 6-well microtiter plates. On day 2, the TCM was removed and replaced with various concentrations of the microsclerodermin compounds, or discodermolide,in TCM or TCM without drug (control) and incubated for 24 hours at 37° C. in 5% CO2. On day 3, the TCM was removed and the adhered cells were fixed in 3.7% formaldehyde solution in Dulbecco's phosphate-buffered saline (D-PBS) for 10 minutes at room temperature. The cells were then permeabilized in a 2% Triton X-100 solution in D-PBS, 2 ml per well, for 5 minutes at room temperature and washed twice in D-PBS prior to staining.
To each well containing cells attached to coverslips a 2 ml volume of mouse monoclonal anti-alpha-tubulin(Cat#T-5168, Sigma Immuno Chemicals) diluted 1:1000 in D-PBS was added and the cells incubated at room temperature for 45 minutes. The coverslips were rinsed twice with D-PBS. A 2 ml volume of goat-anti-mouse-IgG-FITC conjugate (Cat#T-5262, Sigma Immuno Chemicals) diluted at 1:1000 in D-PBS was added and the cells incubated at room temperature for 45 minutes. Coverslips were rinsed twice in D-PBS and incubated for 30 minutes at 37° C. with 1 ml/well of propidium iodide ([…]) and ribonuclease A ([…]) in D-PBS. The cover slips were rinsed three times with sterile distilled water, mounted on slides, and observed under the microscope using epifluorescence illumination for the presence of abnormal aster and microtubule bundle formation.

[1] abbreviates: treated cells, concentration not given, reference agents.

As to `C=C/C=C\[C@H](C)[C@H](OC(N)=O)[C@@H](C)[C@H](O)[C@@H](C)C/C(C)=C\[C@H](C)[C@@H](O)[C@@H](C)/C=C\[C@@H](O)C[C@@H]1OC(=O)[C@H](C)[C@@H](O)[C@H]1C` [discodermolide, reference compound], the “abnormal aster and microtubule bundle formation” value under setting [1] is listed as “abnormal formation of multiple centriolar-radiating microtubules with extensive clusters of associated microtubular “bundles””.

On to `CC(=O)O[C@H]1C(=O)[C@@]2(C)[C@H]([C@H](OC(=O)c3ccccc3)[C@]3(O)C[C@H](OC(=O)[C@H](O)[C@@H](NC(=O)c4ccccc4)c4ccccc4)C(C)=C1C3(C)C)[C@]1(OC(C)=O)CO[C@@H]1C[C@@H]2O` [paclitaxel, reference compound], for which, under setting [1], the “abnormal aster and microtubule bundle formation” value was “abnormal formation of multiple centriolar-radiating microtubules with extensive clusters of associated microtubular “bundles””.

With microsclerodermin F, under “A549 cells, 5 μg/ml, 24 hours”, the “abnormal aster and microtubule bundle formation” value is “nor was there any microtubule bundling or cells with multiple asters”; the “cell number compared with control cultures” value is reported as “fewer cells than in control cultures”; the cells undergoing mitosis entry is given as “No cells in the culture were found to be undergoing mitosis”. Moreover, the “alpha-tubulin antibody staining of the microtubule matrix” value (A549 cells, 5 μg/ml, 24 hours, seen in some cells) is reported as “completely disassembled structure with a near uniform distribution throughout the cytoplasm”.

For the origin of these results see patent US6384187B1, “Antiproliferative activity of microsclerodermins” (Harbor Branch Oceanographic Institution, Inc., priority 1999, dated 2002).
